Laboratory results reported in patent US20080274892A1, “Novel Haloalkylsulfonanilide Derivative, Herbicide, and Method of Use Thereof” (priority 2005, published 2008).

Columns and labels:
bulrush [1] = test: Test Example 1: herbicidal efficacy on rice paddy weeds pre-emergence; assay type: in vivo, Scirpus juncoides; conditions: 21 days
bulrush [2] = test: Test Example 4: low dosage test for rice paddy weeds; assay type: in vivo, Scirpus juncoides; conditions: 300 g/ha as an active ingredient; plants treated at the one leaf stage; 21 days after treatment; vs untreated control
Procedure, shortened: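 Bulrush sown in clay loam pots, flooded to 5 cm water in a hot house, treated at the one-leaf stage with formulated compound at 300 g/ha. Efficacy scored 0–4 against untreated control 21 days after treatment (4 = 90–100%, 0 = 0% inhibition).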

[3] = tested on: paddy rice plant (cultivar: Nihonbare); test: Test Example 3: phytotoxicity test for transplanted paddy rice plant; assay type: in vivo; conditions: transplanted rice, 21 days after treatment
Procedure, shortened: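 Clay loam soil was placed in a 75 cm^2 plastic pot and flooded to a water depth of 5 cm. Two Nihonbare paddy rice plants at the two-leaf stage were transplanted 1 cm deep and grown in a hot house. After treatment, pots stayed in the hot house for 21 days, and phytotoxicity was then graded against an untreated control.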

[4] = tested on: transplanted paddy rice plant and Bulrush; test: Test Example 5: selectivity between transplanted paddy rice plant and weeds; assay type: in vivo; conditions: (highest dosage with no phytotoxicity to paddy rice)/(lowest dosage with effective level 4 on Bulrush); rice 3000-100 g/ha, Bulrush 300-10 g/ha; 21 days
Procedure, shortened: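 Transplanted paddy rice was treated at 3000, 1000, 300 and 100 g/ha active ingredient for phytotoxicity, and post-emergence bulrush at 300, 100, 30 and 10 g/ha. Plants were kept in a hothouse for 21 days. Growth inhibition versus untreated control was scored 0–4 (0%, 1–39%, 40–69%, 70–89%, 90–100%).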

barnyard glass = test: Test Example 2: herbicidal efficacy on rice paddy weeds post-emergence; assay type: in vivo, Echinochloa crus-galli; conditions: post-emergence, one leaf stage, 21 days after treatment
Procedure, shortened: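 Plastic pots of 75 cm^2 were filled with clay loam soil and sown with barnyard glass and bulrush seeds, then topped with 75 cm^3 soil containing false pimpernel seeds. The pots were flooded to 5 cm water depth and held in a hot house. Twenty-one days after treatment, herbicidal efficacy was graded against an untreated control.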

false pimpernel [5] = test: as above; assay type: in vivo, Lindernia pyxidaria; conditions: post-emergence, one leaf stage, 21 days after treatment
bulrush [6] = test: as above; assay type: in vivo, Scirpus juncoides; conditions: post-emergence, one leaf stage, 21 days after treatment
false pimpernel [7] = test: Test Example 1: herbicidal efficacy on rice paddy weeds pre-emergence; assay type: in vivo, Lindernia pyxidaria; conditions: 21 days
[8] = dosage 1000 g/ha, treated 5 days after transplantation

| SMILES | Bulrush pre (herbicidal efficacy grade) (bulrush [1]; dosage 1000 g/ha) | Herbicide effect to Bulrush (bulrush [2]) | Phytotoxicity to paddy rice [3, 8] | Selective Index [4] | Burnyard grass post (herbicidal efficacy grade) (barnyard glass; dosage 1000 g/ha) | False pimpernel post (herbicidal efficacy grade) (false pimpernel [5]; dosage 1000 g/ha) | Bulrush post (herbicidal efficacy grade) (bulrush [6]; dosage 1000 g/ha) | False pimpernel pre (herbicidal efficacy grade) (false pimpernel [7]; dosage 1000 g/ha) | Bulrush pre (herbicidal efficacy grade) (bulrush [1]; dosage 300 g/ha) | Phytotoxicity to paddy rice ([3]; dosage 300 g/ha) | Burnyard grass post (herbicidal efficacy grade) (barnyard glass; dosage 300 g/ha) | False pimpernel post (herbicidal efficacy grade) (false pimpernel [5]; dosage 300 g/ha) | Bulrush post (herbicidal efficacy grade) (bulrush [6]; dosage 300 g/ha) | False pimpernel pre (herbicidal efficacy grade) (false pimpernel [7]; dosage 300 g/ha) |
| --- | --- | --- | --- | --- | --- | --- | --- | --- | --- | --- | --- | --- | --- | --- |
| CCCC1(C)CN(Cc2ccccc2N(C(=O)OCC)S(=O)(=O)C(F)(F)F)C(=O)O1 (racemic) [1-127] | 4 (90%-100% of herbicidal efficacy or phytotoxicity) | 4 (90%-100% of herbicidal efficacy or phytotoxicity) | 1 (1%-39% of herbicidal efficacy or phytotoxicity) | 30 | 4 (90%-100% of herbicidal efficacy or phytotoxicity) | 4 (90%-100% of herbicidal efficacy or phytotoxicity) | 4 (90%-100% of herbicidal efficacy or phytotoxicity) | 4 (90%-100% of herbicidal efficacy or phytotoxicity) |  |  |  |  |  |  |
| CC1(C)CN(Cc2ccccc2N(C(=O)Oc2ccccc2)S(=O)(=O)C(F)(F)F)C(=O)O1 [1-85] | 4 (90%-100% of herbicidal efficacy or phytotoxicity) | 4 (90%-100% of herbicidal efficacy or phytotoxicity) | 2 (40%-69% of herbicidal efficacy or phytotoxicity) | 10 | 4 (90%-100% of herbicidal efficacy or phytotoxicity) | 4 (90%-100% of herbicidal efficacy or phytotoxicity) | 4 (90%-100% of herbicidal efficacy or phytotoxicity) | 4 (90%-100% of herbicidal efficacy or phytotoxicity) |  |  |  |  |  |  |
| CC(C)COC(=O)N(c1ccccc1CN1C(=O)OC(C)(C)C1C)S(=O)(=O)C(F)(F)F (centres unmarked) [1-95] | 4 (90%-100% of herbicidal efficacy or phytotoxicity) | 4 (90%-100% of herbicidal efficacy or phytotoxicity) | 3 (70%-89% of herbicidal efficacy or phytotoxicity) | 30 | 4 (90%-100% of herbicidal efficacy or phytotoxicity) | 4 (90%-100% of herbicidal efficacy or phytotoxicity) | 4 (90%-100% of herbicidal efficacy or phytotoxicity) | 4 (90%-100% of herbicidal efficacy or phytotoxicity) |  |  |  |  |  |  |
| CCCCCOC(=O)N(c1ccccc1CN1CC(C)(C)OC1=O)S(=O)(=O)C(F)(F)F [1-92] | 4 (90%-100% of herbicidal efficacy or phytotoxicity) | 4 (90%-100% of herbicidal efficacy or phytotoxicity) | 3 (70%-89% of herbicidal efficacy or phytotoxicity) | 30 | 4 (90%-100% of herbicidal efficacy or phytotoxicity) | 4 (90%-100% of herbicidal efficacy or phytotoxicity) | 4 (90%-100% of herbicidal efficacy or phytotoxicity) | 4 (90%-100% of herbicidal efficacy or phytotoxicity) |  |  |  |  |  |  |
| CC1(C)CN(Cc2ccccc2N(C(=O)OCC(Cl)(Cl)Cl)S(=O)(=O)C(F)(F)F)C(=O)O1 [1-65] | 4 (90%-100% of herbicidal efficacy or phytotoxicity) | 4 (90%-100% of herbicidal efficacy or phytotoxicity) | 1 (1%-39% of herbicidal efficacy or phytotoxicity) | 10 | 4 (90%-100% of herbicidal efficacy or phytotoxicity) | 4 (90%-100% of herbicidal efficacy or phytotoxicity) | 4 (90%-100% of herbicidal efficacy or phytotoxicity) | 4 (90%-100% of herbicidal efficacy or phytotoxicity) |  |  |  |  |  |  |
| CCC1OC(=O)N(Cc2ccccc2NS(=O)(=O)C(F)(F)F)C1=O (centres unmarked) [1-192] |  | 4 (90%-100% of herbicidal efficacy or phytotoxicity) |  | 10 |  |  |  |  | 4 (90%-100% of herbicidal efficacy or phytotoxicity) | 1 (1%-39% of herbicidal efficacy or phytotoxicity) | 0 (0% of herbicidal efficacy or phytotoxicity) | 0 (0% of herbicidal efficacy or phytotoxicity) | 4 (90%-100% of herbicidal efficacy or phytotoxicity) | 4 (90%-100% of herbicidal efficacy or phytotoxicity) |
| CCCC1(C)CN(Cc2ccccc2N(C(=O)OC)S(=O)(=O)C(F)(F)F)C(=O)O1 (racemic) [1-126] | 4 (90%-100% of herbicidal efficacy or phytotoxicity) | 4 (90%-100% of herbicidal efficacy or phytotoxicity) | 2 (40%-69% of herbicidal efficacy or phytotoxicity) | 10 | 4 (90%-100% of herbicidal efficacy or phytotoxicity) | 4 (90%-100% of herbicidal efficacy or phytotoxicity) | 4 (90%-100% of herbicidal efficacy or phytotoxicity) | 4 (90%-100% of herbicidal efficacy or phytotoxicity) |  |  |  |  |  |  |
| CC(C)COC(=O)N(c1ccccc1CN1CC2(CCCCC2)OC1=O)S(=O)(=O)C(F)(F)F [1-46] | 4 (90%-100% of herbicidal efficacy or phytotoxicity) | 4 (90%-100% of herbicidal efficacy or phytotoxicity) | 1 (1%-39% of herbicidal efficacy or phytotoxicity) | 10 | 4 (90%-100% of herbicidal efficacy or phytotoxicity) | 4 (90%-100% of herbicidal efficacy or phytotoxicity) | 4 (90%-100% of herbicidal efficacy or phytotoxicity) | 4 (90%-100% of herbicidal efficacy or phytotoxicity) |  |  |  |  |  |  |
| CCOC(=O)N(c1ccccc1CN1CC(C)(C(C)C)OC1=O)S(=O)(=O)C(F)(F)F (racemic) [1-115] | 4 (90%-100% of herbicidal efficacy or phytotoxicity) | 4 (90%-100% of herbicidal efficacy or phytotoxicity) | 3 (70%-89% of herbicidal efficacy or phytotoxicity) | 10 | 4 (90%-100% of herbicidal efficacy or phytotoxicity) | 4 (90%-100% of herbicidal efficacy or phytotoxicity) | 4 (90%-100% of herbicidal efficacy or phytotoxicity) | 4 (90%-100% of herbicidal efficacy or phytotoxicity) |  |  |  |  |  |  |
| COC(=O)N(c1ccccc1CN1CC(C)(C2CCCCC2)OC1=O)S(=O)(=O)C(F)(F)F (centres unmarked) [1-157] | 4 (90%-100% of herbicidal efficacy or phytotoxicity) | 3 (70%-89% of herbicidal efficacy or phytotoxicity) | 1 (1%-39% of herbicidal efficacy or phytotoxicity) | 3 | 4 (90%-100% of herbicidal efficacy or phytotoxicity) | 4 (90%-100% of herbicidal efficacy or phytotoxicity) | 4 (90%-100% of herbicidal efficacy or phytotoxicity) | 4 (90%-100% of herbicidal efficacy or phytotoxicity) |  |  |  |  |  |  |
